Measurements published in US20250108036A1, “COMPOSITIONS FOR REMOVING SENESCENT CELLS AND USES THEREOF” (LIFECEUTIX CO., LTD., priority 2021, published 2025).
Read-outs that look alike come from different tables or passages of the source.

Tests used:
Type in all cases: cell-based, human
[1] = system: foreskin cells in which senescence was induced by doxorubicin; experiment: CellTiter-Glo cell viability of doxorubicin-induced senescent foreskin cells (Examples 1-2, 10, 11, 13; Tables 4, 63, 65); conditions: for removal of senescent cells: excessive concentrations (1 or 20 mM)
Method: After 3 days, cell viability was measured using CellTiter-Glo Luminescent Cell Viability Assay (Promega) or light microscopy.

HMGN1 [2] = experiment: HMGN1 ELISA in culture medium of foreskin cells (Examples 10, 11; Tables 62, 63, 64); conditions: Homo sapiens; for activity at 30 µM: read-out: HMGN1
HMGN1 [3] = experiment: HMGN1 ELISA in culture medium of A549 cancer cells (Example 12, Table 66); conditions: Homo sapiens
A549 = experiment: CellTiter-Glo cell viability of senescent A549 cancer cells (Example 12, Table 67); conditions: for Survival (%): doxorubicin-induced senescent A549 cancer cells
[4] = Homo sapiens, 72 h, 1.1 μM test compound, doxorubicin-induced senescent foreskin cells, CellTiter-Glo, 0 μM = 100, read-out: Survival (%)
[5] = Homo sapiens, 72 h, 10 μM test compound, doxorubicin-induced senescent foreskin cells, CellTiter-Glo, 0 μM = 100, read-out: Survival (%)
[6] = Homo sapiens, 72 h, 30 μM test compound, doxorubicin-induced senescent foreskin cells, CellTiter-Glo, 0 μM = 100, read-out: Survival (%)
[7] = Homo sapiens, 72 h, […] test compound, doxorubicin-induced senescent foreskin cells, CellTiter-Glo, 0 μM = 100, read-out: Survival (%)
[8] = Homo sapiens, A549, doxorubicin-induced senescent A549 cancer cells, 1.1 μM test compound, CellTiter-Glo, read-out: Survival (%)
[9] = Homo sapiens, A549, doxorubicin-induced senescent A549 cancer cells, 10 μM test compound, CellTiter-Glo, read-out: Survival (%)
[10] = Homo sapiens, A549, doxorubicin-induced senescent A549 cancer cells, 30 μM test compound, CellTiter-Glo, read-out: Survival (%)
[11] = 30 μM test compound, doxorubicin-treated foreskin cells, DMSO = 100
[12] = A549, doxorubicin-induced senescent A549 cells, test compound 30 μM, ELISA, DMSO = 100, read-out: HMGN1 (amount of HMGN1 secreted in the cell culture)
[13] = Homo sapiens, 72 h, read-out: Survival (%)
[14] = A549, read-out: HMGN1 (amount of HMGN1 secreted in the cell culture)
[15] = Homo sapiens, A549, read-out: Survival (%)
[16] = […] test compound, doxorubicin-induced senescent foreskin cells, CellTiter-Glo, 0 μM = 100

| Compound | viability at 1.1 µM [1, 4] [%] | viability at […] [1, 7] [%] | viability at 1.1 µM (A549; [8]) [%] | activity at 30 µM (HMGN1 [2]; [11]) [%] | activity at 30 µM (HMGN1 [3]; [12]) [%] | other results |
| --- | --- | --- | --- | --- | --- | --- |
| OO [H2O2, reference compound] | – | – | – | – | – | removal of senescent cells [1]: hardly removed |
| CC1=CCC(c2cc(C(=O)C3CCC(c4ccc(C#N)cc4)CC3)c(C)cc2C2CCC2)=C1 (stereo not drawn) [LX-305] | 101 | 97.2 | 99.2 | – | – | viability at 10 µM [1, 5]: 91%; viability at 30 µM [1, 6]: 78%; viability at 90 µM ([1]; Homo sapiens, 72 h, 90 μM test compound, doxorubicin-induced senescent foreskin cells, CellTiter-Glo, 0 μM = 100, read-out: Survival (%)): 23.2%; activity at 90 µM (HMGN1 [2]; 90 μM test compound, doxorubicin-treated foreskin cells, DMSO = 100): 199%; activity at 90 µM (HMGN1 [3]; A549, doxorubicin-induced senescent A549 cells, test compound 90 μM, ELISA, DMSO = 100, read-out: HMGN1 (amount of HMGN1 secreted in the cell culture)): 227%; viability at 10 µM (A549; [9]): 63.1%; viability at 30 µM (A549; [10]): 41%; viability at 90 µM (A549; Homo sapiens, A549, doxorubicin-induced senescent A549 cancer cells, 90 μM test compound, CellTiter-Glo, read-out: Survival (%)): 13.3% |
| O=C(O)Cn1nnc(-c2cc(N3CCC(Oc4cc(F)ccc4Br)CC3)no2)n1 [LX-309] | 52.3 | 12.5 | 100 | 283 | 254 | viability at 10 µM [1, 5]: 4.3%; viability at 10 µM (A549; [9]): 92.3%; viability at 30 µM (A549; [10]): 28.1% |
| O=C(C(C[N+](=O)[O-])=NO)N1CCN(C(c2ccc(Cl)cc2)c2ccc(Cl)cc2)CC1 [LX-403] | 36.9 | 15.5 | 40.2 | 275 | 320 | viability at 10 µM [1, 5]: 6.5%; viability at 10 µM (A549; [9]): 3.5% |
| C[C@H]1Cc2c([nH]c3ccccc23)[C@H](c2ccc([Si](C)(C)C)cc2)N1C(=O)CCl [LX-412] | 0.3 | – | 4.8 | 293 | 327 | – |
| COCC1Cc2c([nH]c3ccccc23)[C@H](c2ccc(C(=O)NC3CC3)cc2F)N1C(=O)CCl (stereo partly drawn) [LX-413] | 0.5 | – | 10.1 | 287 | 322 | – |
| C#CCOc1ccc2[nH]c3c(c2c1)C[C@H](C(=O)OC)N(C(=O)CCl)[C@H]3c1ccc(C(=O)NC23CC4CC(CC(C4)C2)C3)cc1 [LX-415] | 0.4 | – | 15.6 | 295 | 297 | – |
| COC(=O)c1ccc([C@H]2c3ccc(OC)cc3C[C@H](C(=O)OC)N2C(=O)CCl)cc1 [LX-416] | 70.3 | 29.1 | 91.4 | 293 | 315 | – |
| COC(=O)c1ccc([C@@H]2c3ccc(OC)cc3C[C@H](C(=O)OC)N2C(=O)CCl)cc1 [LX-417] | 21.8 | – | 43.5 | 294 | 347 | – |
| C[C@@H]1Cc2c([nH]c3ccccc23)[C@H](c2ccc(F)cc2)[C@H]1C#N [LX-418] | 5.1 | – | 17.7 | 284 | 286 | – |
| C#CC(=O)N1[C@@H](CCCC)Cc2c([nH]c3ncccc23)[C@@H]1c1ccc(F)cc1 [LX-419] | 10.3 | – | 25.1 | 274 | 313 | – |
| CCCC[C@H]1Cc2c([nH]c3ccccc23)[C@H](c2ccc(C(=O)NC34CC5CC(CC(C5)C3)C4)cc2)N1C(=O)CCl [LX-420] | 0 | – | 10 | 286 | 307 | – |
| C#CC(=O)N1[C@@H](CCCC)Cc2cc(CO)ccc2[C@@H]1c1ccc(NC23CC4CC(CC(C4)C2)C3)cc1 [LX-421] | 3.4 | – | 3.8 | 293 | 328 | – |
| CCCC[C@H]1Cc2c([nH]c3ccccc23)[C@H](c2ccc(NC3CCC3)cc2)N1C(=O)C#C[Si](C)(C)C [LX-422] | – | – | – | – | – | viability at 1.1 µM [1, 13]: 1.8%; activity at 30 µM (HMGN1 [2]): 294%; activity at 30 µM (HMGN1 [3]; [14]): 336%; viability at 1.1 µM (A549; [15]): 4.8% |
| Cc1onc(C(=O)N2CCN(C(c3ccc(Cl)cc3)c3ccc(OCc4cn(CCOCCNc5cccc6c5C(=O)N(C5CCC(=O)NC5=O)C6=O)nn4)cc3)CC2)c1[N+](=O)[O-] (stereo not drawn) [LX-431, 4-((2-(2-(4-((4-((4-chlorophenyl)(4-(5-methyl-4-nitroisooxazol-3-carbonyl)piperazin-1-yl)methyl)phenoxy)methyl)-1H-1,2,3-triazol-1-yl)ethoxy)ethyl)amino)-2-(2,6-dioxopiperidin-3-yl)isoindolin-1,3-dione] | 89.5 | 12.6 | 94.6 | 312 | 283 | – |
| Cc1onc(C(=O)N2CCN(C(c3ccc(Cl)cc3)c3ccc(OCc4cn(CCOCCOCCNc5cccc6c5C(=O)N(C5CCC(=O)NC5=O)C6=O)nn4)cc3)CC2)c1[N+](=O)[O-] (stereo not drawn) [LX-432, 4-((2-(2-(2-(4-((4-((4-chlorophenyl)(4-(5-methyl-4-nitroisooxazol-3-carbonyl)piperazin-1-yl)methyl)phenoxy)methyl)-1H-1,2,3-triazol-1-yl)ethoxy)ethoxy)ethyl)amino)-2-(2,6-dioxopiperidin-3-yl)isoindolin-1,3-dione] | 84.2 | – | 97.1 | 304 | 270 | Survival (%) [1, 16]: 23.8% |
| Cc1onc(C(=O)N2CCN(C(c3ccc(Cl)cc3)c3ccc(OCc4cn(CCOCCOCCNc5cccc6c5C(=O)N(C5CCC(=O)NC5=O)C6=O)nn4)cc3)CC2)c1[N+](=O)[O-] (stereo not drawn) [LX-435, 4-((2-(2-(2-(4-((4-((4-chlorophenyl)(4-(5-methyl-4-nitroisooxazol-3-carbonyl)piperazin-1-yl)methyl)phenoxy)methyl)-1H-1,2,3-triazol-1-yl)ethoxy)ethoxy)ethyl)amino)-2-(2,6-dioxopiperidin-3-yl)isoindolin-1,3-dione] | – | – | – | – | – | Survival (%) ([1]; 1.1 μM test compound, doxorubicin-induced senescent foreskin cells, CellTiter-Glo, 0 μM = 100): 89.1%; Survival (%) [1, 16]: 5.9%; Survival (%) (A549; 1.1 μM test compound, CellTiter-Glo): 92.1% |
| Cc1onc(C(=O)N2CCN(C(c3ccc(Cl)cc3)c3ccc(OCc4cn(CCOCCOCCOCCOCCNc5cccc6c5C(=O)N(C5CCC(=O)NC5=O)C6=O)nn4)cc3)CC2)c1[N+](=O)[O-] (stereo not drawn) [LX-436, 4-((14-(4-((4-((4-chlorophenyl)(4-(5-methyl-4-nitroisooxazol-3-carbonyl)piperazin-1-yl)methyl)phenoxy)methyl)-1H-1,2,3-triazol-1-yl)-3,6,9,12-tetraoxatetradecyl)amino)-2-(2,6-dioxopiperidin-3-yl)isoindolin-1,3-dione] | 84.4 | 3.8 | 99.5 | 299 | 278 | – |
| Cc1onc(C(=O)N2CCN(C(c3ccc(Cl)cc3)c3ccc(OCc4cn(CCNc5cccc6c5C(=O)N(C5CCC(=O)NC5=O)C6=O)nn4)cc3)CC2)c1[N+](=O)[O-] (stereo not drawn) [LX-437, 4-((2-(4-((4-((4-chlorophenyl)(4-(5-methyl-4-nitroisooxazol-3-carbonyl)piperazin-1-yl)methyl)phenoxy)methyl)-1H-1,2,3-triazol-1-yl)ethyl)amino)-2-(2,6-dioxopiperidin-3-yl)isoindolin-1,3-dione] | 86.2 | 10.9 | 93.6 | 309 | 301 | – |
| CN(C)CCn1cc(-c2ccc(F)cc2)c(-n2cccc2)n1 [LX-913] | 97.7 | 84.4 | 95.1 | – | – | Survival (%) ([1]; 30 μM test compound, doxorubicin-induced senescent foreskin cells, CellTiter-Glo, 0 μM = 100): 14.5%; viability at 10 µM [1, 5]: 65%; viability at 10 µM (A549; [9]): 82.6%; Survival (%) (A549; 30 μM test compound, CellTiter-Glo): 45.7%; Survival (%) (A549; 90 μM test compound, CellTiter-Glo): 1.9% |
| C=C(CN(C)C)C(=O)c1ccc2c(c1)OCO2 [LX-919] | – | – | – | – | – | activity at 30 µM (HMGN1 [2]): 321%; activity at 90 µM (HMGN1 [3]; [14]): 215% |
| COc1cc(OC)cc(N(CCNC(C)C)c2ccc3ncc(-c4cnn(C)c4)nc3c2)c1 [LX-1903, Erdafitinib, reference compound] | 73.4 | 50.3 | 93.1 | – | – | viability at 10 µM [1, 5]: 22.4%; viability at 30 µM [1, 6]: 11.8%; viability at 10 µM (A549; [9]): 12.3% |
| CCCC\C=C/C=C/C=C\CCCCCCCC(=O)O [LX-2707, Punicic acid] | – | – | – | – | – | viability at 1.1 µM [1, 13]: 95.1%; viability at 10 µM [1, 13]: 64.8%; viability at 30 µM [1, 13]: 29%; viability at 1.1 µM (A549; [15]): 95.1%; viability at 10 µM (A549; [15]): 64.8%; viability at 30 µM (A549; [15]): 29% |
| CC(=O)N[C@@H](CS)C(=O)O [NAC, N-acetyl cysteine, reference compound] | – | – | – | – | – | removal of senescent cells [1]: hardly removed |
